The source of these data is US7951824B2, “4-aryl-pyridine-2-carboxyamide derivatives” (Hoffman-La Roche Inc., priority 2006, dated 2011).

For one test, the target named is T1, human mGlu 5a receptor (Homo sapiens, UniProt P41594).
T1 construct: expressed in transfected cells; host or cells: EBNA cells (transient transfection), membrane homogenates
T1 sequence (P41594 21-1180 isoform P41594-2 limits assumed): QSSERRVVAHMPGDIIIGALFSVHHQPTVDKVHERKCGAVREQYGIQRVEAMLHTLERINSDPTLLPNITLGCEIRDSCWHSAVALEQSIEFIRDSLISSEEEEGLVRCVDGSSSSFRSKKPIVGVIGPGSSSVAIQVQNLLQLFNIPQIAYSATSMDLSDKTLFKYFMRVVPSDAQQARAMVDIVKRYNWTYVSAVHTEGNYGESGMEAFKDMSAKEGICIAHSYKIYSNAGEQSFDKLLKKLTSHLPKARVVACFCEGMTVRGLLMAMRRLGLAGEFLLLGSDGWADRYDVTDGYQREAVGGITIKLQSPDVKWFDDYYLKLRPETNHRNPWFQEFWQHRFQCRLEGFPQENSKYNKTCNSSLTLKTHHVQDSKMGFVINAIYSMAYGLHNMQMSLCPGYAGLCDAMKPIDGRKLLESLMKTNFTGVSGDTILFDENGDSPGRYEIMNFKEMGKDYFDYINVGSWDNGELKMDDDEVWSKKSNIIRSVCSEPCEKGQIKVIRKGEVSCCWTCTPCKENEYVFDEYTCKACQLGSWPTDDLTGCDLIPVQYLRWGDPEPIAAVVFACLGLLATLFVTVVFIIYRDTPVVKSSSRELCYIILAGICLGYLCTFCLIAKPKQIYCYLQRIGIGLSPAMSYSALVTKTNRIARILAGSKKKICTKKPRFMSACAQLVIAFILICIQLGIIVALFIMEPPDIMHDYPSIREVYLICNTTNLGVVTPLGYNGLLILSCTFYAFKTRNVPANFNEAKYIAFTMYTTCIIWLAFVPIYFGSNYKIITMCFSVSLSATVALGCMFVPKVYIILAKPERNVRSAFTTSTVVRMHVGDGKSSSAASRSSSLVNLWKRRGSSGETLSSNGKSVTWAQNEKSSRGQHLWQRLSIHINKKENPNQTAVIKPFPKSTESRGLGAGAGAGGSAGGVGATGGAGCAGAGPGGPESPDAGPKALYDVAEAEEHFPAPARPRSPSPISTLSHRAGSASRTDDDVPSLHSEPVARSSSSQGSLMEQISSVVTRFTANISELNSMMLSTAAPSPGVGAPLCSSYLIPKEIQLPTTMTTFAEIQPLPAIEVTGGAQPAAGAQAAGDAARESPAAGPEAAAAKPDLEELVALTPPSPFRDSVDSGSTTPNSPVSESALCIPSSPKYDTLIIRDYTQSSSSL
The test is described as follows: [3H]MPEP competition binding on membranes of EBNA cells transfected with human mGlu 5a receptor. The settings on record: competition with [3H]MPEP (2 nM), 1 h at 4° C., EBNA cell membranes. The method, then:
The pharmacological activity of the compounds was tested using the following method: For binding experiments, cDNA encoding human mGlu 5a receptor was transiently transfected into EBNA cells using a procedure described by Schlaeger and Christensen [Cytotechnology 15:1-13 (1998)]. Cell membrane homogenates were stored at −80° C. until the day of assay where upon they were thawed and resuspended and polytronised in 15 mM Tris-HCl, 120 mM NaCl, 100 mM KCl, 25 mM CaCl2, 25 mM MgCl2 binding buffer at pH 7.4 to a final assay concentration of 20 μg protein/well.
Saturation isotherms were determined by addition of twelve [^3H] MPEP concentrations (0.04-100 nM) to these membranes (in a total volume of 200 μd) for 1 h at 4° C. Competition experiments were performed with a fixed concentration of [^3H]MPEP (2 nM) and IC50 values of test compounds evaluated using 11 concentrations (0.3-10,000 nM). Incubations were performed for 1 h at 4° C.
At the end of the incubation, membranes were filtered onto unifilter (96-well white microplate with bonded GF/C filter preincubated 1 h in 0.1% PEI in wash buffer, Packard Bio-Science, Meriden, Conn.) with a Filtermate 96 harvester (Packard BioScience) and washed 3 times with cold 50 mM Tris-HCl, pH 7.4 buffer. Nonspecific binding was measured in the presence of 10 μM MPEP. The radioactivity on the filter was counted (3 min) on a Packard Top-count microplate scintillation counter with quenching correction after addition of 45 μl of microscint 40 (Canberra Packard S. A., Zürich, Switzerland) and shaking for 20 min.
For binding experiments the Ki values of the compounds tested are given. The Ki value is defined by the following formula: KiIC50/[1+L/Kd] in which the IC50 values are those concentrations of the compounds tested which cause 50% inhibition of the competing radioligand ([^3H]MPEP). L is the concentration of radioligand used in the binding experiment and the Kd value of the radioligand is empirically determined for each batch of membranes prepared.
On to `Cc1cc(-c2cc(F)cc(F)c2)cc(C(=O)Nc2nc(C)c(F)s2)n1` [Example 199, 4-(3,5-Difluoro-phenyl)-6-methyl-pyridine-2-carboxylic acid (5-fluoro-4-methyl-thiazol-2-yl)-amide], for which the Ki worked out at 14 nM.

As to `Cc1cc(-c2ccnc(Cl)c2)cc(C(=O)Nc2ccn(C)n2)n1` [Example 153, 2′-Chloro-6-methyl-[4,4′]bipyridinyl-2-carboxylic acid (1-methyl-1H-pyrazol-3-yl)-amide], the Ki stood at 59 nM.

For `Cc1nc(C(=O)Nc2ccnc(Cl)c2)cc(-c2cc(F)cc(F)c2)n1` [Example 36, 6-(3,5-Difluoro-phenyl)-2-methyl-pyrimidine-4-carboxylic acid (2-chloro-pyridin-4-yl)-amide], the Ki amounted to 113 nM.

`Cc1cccc(NC(=O)c2cc(-c3cccnc3)cc(C)n2)n1` [Example 87, 6′-Methyl-[3,4′]bipyridinyl-2′-carboxylic acid (6-methyl-pyridin-2-yl)-amide]: the Ki worked out at 20 nM.

As for `Cc1cc(-c2cc(C)nc(C(=O)Nc3nc(C#N)cs3)c2)ccn1` [Example 185, 6,2′-Dimethyl-[4,4′]bipyridinyl-2-carboxylic acid (4-cyano-thiazol-2-yl)-amide], the Ki amounted to 290 nM.

Consider `Cc1cc(-c2cncc(F)c2)cc(C(=O)Nc2nc(C(F)F)cs2)n1` [Example 174, 5-Fluoro-6′-methyl-[3,4′]bipyridinyl-2′-carboxylic acid (4-difluoromethyl-thiazol-2-yl)-amide], for which the Ki was 39 nM.

Consider `Cc1cc(-c2cc(F)cc(F)c2)cc(C(=O)Nc2ccnc(C#N)c2)n1` [Example 169, 4-(3,5-Difluorophenyl)-6-methyl-pyridine-2-carboxylic acid (2-cyano-pyridin-4-yl)-amide], for which the Ki came out at 30 nM.

Take `Cc1cc(-c2cncc(F)c2)cc(C(=O)Nc2ccnc(Cl)c2)n1` [Example 67, 5-Fluoro-6′-methyl-[3,4′]bipyridinyl-2′-carboxylic acid (2-chloro-pyridin-4-yl)-amide]: the Ki was 37 nM.

Take `Cc1cc(-c2cncc(F)c2)cc(C(=O)Nc2cccc(Cl)c2)n1` [Example 177, 5-Fluoro-6′-methyl-[3,4′]bipyridinyl-2′-carboxylic acid (3-chloro-phenyl)-amide]: the inhibition constant Ki was determined as 111 nM.

As to `Cc1cc(NC(=O)c2cc(-c3cc(F)cc(F)c3)nc(C)n2)ccn1` [Example 37, 6-(3,5-Difluoro-phenyl)-2-methyl-pyrimidine-4-carboxylic acid (2-methyl-pyridin-4-yl)-amide], the Ki was determined as 90 nM.

With `Cc1csc(NC(=O)c2cc(-c3cc(F)cc(F)c3)nc(C)n2)n1` [Example 33, 6-(3,5-Difluoro-phenyl)-2-methyl-pyrimidine-4-carboxylic acid (4-methyl-thiazol-2-yl)-amide], the Ki stood at 14 nM.

Take `Cc1cc(-c2cc(F)cc(F)c2)cc(C(=O)Nc2ncc(F)s2)n1` [Example 200, 4-(3,5-Difluoro-phenyl)-6-methyl-pyridine-2-carboxylic acid (5-fluoro-thiazol-2-yl)-amide]: the Ki worked out at 81 nM.

As to `Cc1cc(-c2cncc(F)c2)cc(C(=O)Nc2ccc(Cl)cn2)n1` [Example 173, 5-Fluoro-6′-methyl-[3,4′]bipyridinyl-2′-carboxylic acid (5-chloro-pyridin-2-yl)-amide], the Ki was determined as 33 nM.

As to `Cc1cc(-c2cccnc2)cc(C(=O)Nc2cccc(C#N)c2)n1` [Example 95, 6′-Methyl-[3,4′]bipyridinyl-2′-carboxylic acid (3-cyanophenyl)-amide], the Ki turned out to be 411 nM.

Take `Cc1cc(-c2cc(Cl)cc(Cl)c2)cc(C(=O)Nc2ccn(C)n2)n1` [Example 23, 4-(3,5-Dichloro-phenyl)-6-methyl-pyridine-2-carboxylic acid (1-methyl-1H-pyrazol-3-yl)-amide]: the Ki stood at 4 nM.

Consider `Cc1cc(-c2cc(F)cc(F)c2)nc(C(=O)Nc2nc(C)cs2)n1` [Example 192, 4-(3,5-Difluoro-phenyl)-6-methyl-pyrimidine-2-carboxylic acid (4-methyl-thiazol-2-yl)-amide], for which the Ki came out at 110 nM.

Regarding `Cc1cc(-c2cc(F)cc(F)c2)nc(C(=O)Nc2ccn(C)n2)n1` [Example 198, 4-(3,5-Difluoro-phenyl)-6-methyl-pyrimidine-2-carboxylic acid (1-methyl-1H-pyrazol-3-yl)-amide], the Ki came to 181 nM.

Turning to `Cc1nc(C(=O)Nc2csc(C)n2)cc(-c2cc(F)cc(F)c2)n1` [Example 34, 6-(3,5-Difluoro-phenyl)-2-methyl-pyrimidine-4-carboxylic acid (2-methyl-thiazol-4-yl)-amide], the Ki is 36 nM.

With `Cc1cc(-c2cncc(F)c2)cc(C(=O)Nc2ccccc2)n1` [Example 180, 5-Fluoro-6′-methyl-[3,4′]bipyridinyl-2′-carboxylic acid phenylamide], the Ki was determined as 364 nM.

Consider `Cc1cc(-c2cc(F)cc(F)c2)cc(C(=O)Nc2ccnc(C)n2)n1` [Example 64, 4-(3,5-Difluorophenyl)-6-methyl-pyridine-2-carboxylic acid (2-methyl-pyrimidin-4-yl)-amide], for which the Ki came out at 8 nM.

As for `Cc1nc(C(=O)Nc2ccn(C)n2)cc(-c2cc(F)cc(F)c2)n1` [Example 35, 6-(3,5-Difluoro-phenyl)-2-methyl-pyrimidine-4-carboxylic acid (1-methyl-1H-pyrazol-3-yl)-amide], the Ki was found to be 51 nM.

Regarding `Cc1cc(-c2ccc(F)cc2)cc(C(=O)Nc2cccc(Cl)c2)n1` [Example 26, 4-(4-Fluoro-phenyl)-6-methyl-pyridine-2-carboxylic acid (3-chloro-phenyl)-amide], the Ki stood at 287 nM.

Consider `COc1cncc(-c2cc(C)nc(C(=O)Nc3ccn(C)n3)c2)c1` [Example 50, 5-Methoxy-6′-methyl-[3,4′]bipyridinyl-2′-carboxylic acid (1-methyl-1H-pyrazol-3-yl)-amide], for which the Ki was determined as 213 nM.

The same test, now with this note: competition with [3H]MPEP (2 nM), 1 h at 4° C., EBNA cell membranes, head prints no unit.
Regarding `Cc1cc(-c2cc(F)cc(F)c2)cc(C(=O)Nc2nc(C)cs2)n1` [Example 2, 4-(3,5-Difluoro-phenyl)-6-methyl-pyridine-2-carboxylic acid (4-methyl-thiazol-2-yl)-amide], the Ki was determined as 7 nM.

Regarding `Cc1cc(-c2ccc(F)c(F)c2)cc(C(=O)Nc2nc(C)cs2)n1` [Example 10, 4-(3,4-Difluoro-phenyl)-6-methyl-pyridine-2-carboxylic acid (4-methyl-thiazol-2-yl)-amide], the Ki stood at 23 nM.

Take `Cc1cc(-c2cc(Cl)cc(Cl)c2)cc(C(=O)Nc2nc(C)cs2)n1` [Example 17, 4-(3,5-Dichloro-phenyl)-6-methyl-pyridine-2-carboxylic acid (4-methyl-thiazol-2-yl)-amide]: the Ki is 2 nM.

As to `Cc1cc(-c2cccc(OC(F)(F)F)c2)cc(C(=O)Nc2nc(C)cs2)n1` [Example 7, 6-Methyl-4-(3-trifluoromethoxy-phenyl)-pyridine-2-carboxylic acid (4-methyl-thiazol-2-yl)-amide], the Ki worked out at 14 nM.

On to `Cc1cc(-c2cncc(F)c2)cc(C(=O)Nc2nc(C)cs2)n1` [Example 19, 5-Fluoro-6′-methyl-[3,4′]bipyridinyl-2′-carboxylic acid (4-methyl-thiazol-2-yl)-amide], for which the Ki was 25 nM.

For the compound `Cc1cc(-c2cccc(S(C)(=O)=O)c2)cc(C(=O)Nc2nc(C)cs2)n1` [Example 8, 4-(3-Methanesulfonyl-phenyl)-6-methyl-pyridine-2-carboxylic acid (4-methyl-thiazol-2-yl)-amide], the Ki is 396 nM.

For the compound `Cc1cc(-c2cccc(CO)c2)cc(C(=O)Nc2nc(C)cs2)n1` [Example 15, 4-(3-Hydroxymethyl-phenyl)-6-methyl-pyridine-2-carboxylic acid (4-methyl-thiazol-2-yl)-amide], the Ki came to 17 nM.

In the case of `Cc1cc(-c2cc(Cl)cc(Cl)c2)cc(C(=O)Nc2csc(C)n2)n1` [Example 20, 4-(3,5-Dichloro-phenyl)-6-methyl-pyridine-2-carboxylic acid (2-methyl-thiazol-4-yl)-amide], the Ki amounted to 6 nM.

`Cc1cc(-c2cc(F)ccc2F)cc(C(=O)Nc2nc(C)cs2)n1` [Example 5, 4-(2,5-Difluoro-phenyl)-6-methyl-pyridine-2-carboxylic acid (4-methyl-thiazol-2-yl)-amide]: the Ki is 29 nM.

As to `Cc1cc(-c2cccc(F)c2)cc(C(=O)Nc2nc(C)cs2)n1` [Example 1, 4-(3-Fluoro-phenyl)-6-methyl-pyridine-2-carboxylic acid (4-methyl-thiazol-2-yl)-amide], the Ki is 3 nM.

With `Cc1cc(-c2cccc(C#N)c2)cc(C(=O)Nc2nc(C)cs2)n1` [Example 3, 4-(3-Cyano-phenyl)-6-methyl-pyridine-2-carboxylic acid (4-methyl-thiazol-2-yl)-amide], the Ki was 11 nM.
